Experimental findings from patent publication US8791132B2, “Compounds and methods for treatment of hypertension” (Medivation Technologies, Inc., priority 2011, dated 2014) are described below.

In assay [1] the target is T1, human recombinant adrenergic α2B receptor (Homo sapiens, UniProt P18089).
T1 construct: expressed in transfected cells; host or cells: CHO-K1
T1 sequence (P18089 1-450): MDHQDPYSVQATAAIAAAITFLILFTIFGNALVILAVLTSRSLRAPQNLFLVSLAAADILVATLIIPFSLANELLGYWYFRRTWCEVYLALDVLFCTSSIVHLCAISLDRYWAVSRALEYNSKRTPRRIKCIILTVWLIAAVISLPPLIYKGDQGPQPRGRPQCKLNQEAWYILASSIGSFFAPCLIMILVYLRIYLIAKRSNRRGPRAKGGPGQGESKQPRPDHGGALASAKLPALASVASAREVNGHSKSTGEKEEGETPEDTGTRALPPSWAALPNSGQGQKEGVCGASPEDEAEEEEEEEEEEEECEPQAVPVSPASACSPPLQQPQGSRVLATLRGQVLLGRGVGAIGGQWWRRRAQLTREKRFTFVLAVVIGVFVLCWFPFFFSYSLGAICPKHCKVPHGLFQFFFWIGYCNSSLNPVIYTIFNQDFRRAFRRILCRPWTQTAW
In words: Radioligand binding, adrenergic α2B ([3H]Rauwolscine). As to conditions: for inhibition at 0.03 µM: read-out: Percentage inhibition of ligand binding, Adrenergic α2B (0.03 μM), compound at 0.03 μM. A digest of the protocol: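 Readout: percent inhibition of specific [3H]Rauwolscine binding, measured by filtration and counting. Conditions: CHO-K1 cell-expressed receptor, 2.5 nM radioligand, 60 min, 25° C, Tris-HCl pH 7.4 buffer with MgCl2, EDTA, BSA. Non-specific binding: 10 μM Prazosin.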

Assay [2] has as its target T2, human recombinant adrenergic α2A receptor (Homo sapiens, UniProt P08913).
T2 construct: expressed in transfected cells; host or cells: insect Sf9 cells
T2 sequence (P08913 1-465): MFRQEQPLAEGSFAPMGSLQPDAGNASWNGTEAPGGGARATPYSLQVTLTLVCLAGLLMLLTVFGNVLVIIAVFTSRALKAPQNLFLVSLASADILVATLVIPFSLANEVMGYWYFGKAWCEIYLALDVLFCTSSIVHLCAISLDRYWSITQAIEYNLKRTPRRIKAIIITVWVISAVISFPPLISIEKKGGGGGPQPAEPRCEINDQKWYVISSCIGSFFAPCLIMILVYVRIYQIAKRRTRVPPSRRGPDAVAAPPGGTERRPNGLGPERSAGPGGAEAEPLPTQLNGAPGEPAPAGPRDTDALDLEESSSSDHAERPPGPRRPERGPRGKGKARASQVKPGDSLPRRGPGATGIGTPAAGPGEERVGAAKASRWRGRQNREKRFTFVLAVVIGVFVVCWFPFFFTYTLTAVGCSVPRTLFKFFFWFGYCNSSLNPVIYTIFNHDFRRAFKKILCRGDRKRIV
In words: Radioligand binding, adrenergic α2A ([3H]MK-912). As to conditions: read-out: Percentage inhibition of ligand binding, Adrenergic α2A (0.1 μM), compound at 0.1 μM; [3H]MK-912; repeat datapoints each shown. A digest of the protocol: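 Sf9-expressed receptor was incubated with compound for 60 min at 25 °C in modified Tris-HCl buffer, pH 7.4. Nonspecific binding was taken as that remaining with 10 μM WB-4101.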

In assay [3] the target is T3, rat adrenergic α1B receptor (Rattus norvegicus, UniProt P15823).
T3 construct: rat adrenergic α1B receptor obtained from Wistar Rat liver; from tissue; host or cells: Wistar rat liver
T3 sequence (P15823 1-515): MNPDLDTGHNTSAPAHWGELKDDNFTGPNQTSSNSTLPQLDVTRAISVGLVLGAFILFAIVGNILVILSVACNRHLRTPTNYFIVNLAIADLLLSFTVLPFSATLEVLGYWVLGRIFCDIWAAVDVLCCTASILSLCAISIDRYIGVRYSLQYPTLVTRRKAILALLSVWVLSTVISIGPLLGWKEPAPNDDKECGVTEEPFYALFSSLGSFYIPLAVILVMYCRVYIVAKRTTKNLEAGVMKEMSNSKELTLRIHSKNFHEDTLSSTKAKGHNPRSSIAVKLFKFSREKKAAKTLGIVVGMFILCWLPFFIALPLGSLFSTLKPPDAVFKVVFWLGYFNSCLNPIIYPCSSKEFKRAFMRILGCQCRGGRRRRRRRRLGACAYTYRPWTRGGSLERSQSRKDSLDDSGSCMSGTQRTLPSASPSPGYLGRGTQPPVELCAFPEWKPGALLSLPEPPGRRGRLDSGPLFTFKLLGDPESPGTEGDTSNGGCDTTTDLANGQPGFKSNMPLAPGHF
In words: Radioligand binding, adrenergic α1B ([3H]Prazosin). As to conditions: [3H]Prazosin, repeat datapoints each shown; for inhibition at 0.1 µM: read-out: Percentage inhibition of ligand binding, Adrenergic α1B (0.1 μM), compound at 0.1 μM. The method in brief: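 Filter binding with Wistar rat liver α1B preparation: test compound plus 0.25 nM [3H]prazosin, 1 h at 25° C in modified Tris-HCl buffer pH 7.4.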

Setting [4] is: [3H]Rauwolscine, repeat datapoints each shown.

One may read the inhibition as the drop in the measured response relative to a control, in per cent. Regarding `Cc1ccc2c(c1)c1c(n2CC(CCN)c2ccncc2)CCN(C)C1` (centres unmarked) [II-231, 4-(2,8-dimethyl-1,2,3,4-tetrahydro-pyrido[4,3-b]indol-5-yl)-3-pyridin-4-yl-butylamine], the inhibition at 0.03 µM in assay [1] (setting [4]) was -2%. For the same compound, the inhibition at 0.1 µM in assay [2] was found to be 9%; in assay [3] it was 11%.

As to `Cc1ccc2c(c1)c1c(n2CC(CCN(C)C)c2ccncc2)CCN(C)C1` (centres unmarked) [II-232, [4-(2,8-dimethyl-1,2,3,4-tetrahydro-pyrido[4,3-b]indol-5-yl)-3-pyridin-4-yl-butyl]-dimethyl-amine], the inhibition at 0.03 µM in assay [1] (setting [4]) turned out to be 28%. Also, the inhibition at 0.1 µM in assay [2] and in assay [3] was 3% each time.

As to `Cc1cnc2c(c1)c1c(n2CCc2ccncc2)CCN(C)C1` [II-240], the inhibition at 0.03 µM in assay [1] (setting [4]) is 53%. Besides, the results for the inhibition at 0.1 µM in assay [2] and in assay [3] were 7% and 57%, respectively.

As to `CN1CCc2c(c3ncccc3n2CC(O)c2ccncc2)C1` (centres unmarked) [II-241], in assay [1] (setting [4]), the inhibition at 0.03 µM is -1%. For the same compound, the inhibition at 0.1 µM in assay [2] is -1%; in assay [3], 5%.

Take `CN1CCc2c(c3ccncc3n2CC(O)c2ccncc2)C1` (centres unmarked) [II-242]: in assay [1] (setting [4]), the inhibition at 0.03 µM worked out at 3%. The inhibition at 0.1 µM amounted to 2% in assay [2] and 4% in assay [3].

Broadly, the Ki is a measure of affinity in units of concentration, obtained from inhibition or displacement. Take `Cc1cnc2c(c1)c1c(n2CCc2ccc(C(N)=O)nc2)CCN2CCCC12` (centres unmarked) [II-243, 5-[2-(9-methyl-1,2,3,4,5,10c-hexahydro-3a,6,7-triaza-cyclopenta[c]fluoren-6-yl)-ethyl]-pyridine-2-carboxylic acid amide]: the “Percentage inhibition of ligand binding, Adrenergic α2B (0.03 μM)” value in assay [1] (compound at 0.03 μM, [3H]Rauwolscine, repeat datapoints each shown, 0.03 µM) worked out at 61%. In addition, in assay [1] (read-out: Ki α2B), the Ki was found to be 9.44 nM. The inhibition at 0.03 µM is 58% in assay [1] (setting [4]) and 79% in assay [3] (read-out: Percentage inhibition of ligand binding, Adrenergic α1B (0.03 μM), compound at 0.03 μM). Moreover, the inhibition at 0.1 µM in assay [1] (read-out: Percentage inhibition of ligand binding, Adrenergic α2B (0.1 μM), compound at 0.1 μM, [3H]Rauwolscine, repeat datapoints each shown) was determined as 82%; in assay [2], 19%; in assay [3], 91%. Also, the “Percentage inhibition of ligand binding, Adrenergic α1B (0.1 μM)” value in assay [3] (compound at 0.1 μM, 0.1 µM) is given as 93%.

Regarding `Cc1cnc2c(c1)c1c(n2CCc2cnccn2)CCN2CCCC12` (centres unmarked) [II-245], the inhibition at 0.03 µM in assay [1] (setting [4]) was determined as 44%. Moreover, the values for the inhibition at 0.1 µM in assay [2] and in assay [3] were 7% and 27%, respectively.

`Cc1ccc(CCn2c3c(c4c(Cl)ccc(Cl)c42)CCN(C)CC3)cn1` [II-246, 7,10-dichloro-1,2,3,4,5,6-hexahydro-3-methyl-6-(2-(6-methylpyridin-3-yl)ethyl)azepino [4,5-b]indole]: in assay [1] (setting [4]), the inhibition at 0.03 µM was found to be 5%. Moreover, the results for the inhibition at 0.1 µM in assay [2] and in assay [3] were 47% and -2%, respectively.

As to `Cc1ccc(CCn2c3c(c4c(Br)ccc(Cl)c42)CN(C)CC3)cn1` [II-247, 9-bromo-6-chloro-2,3,4,5-tetrahydro-2-methyl-5-(2-(6-methylpyridin-3-yl)ethyl)-1H-pyrido[4,3-b]indole], the inhibition at 0.03 µM in assay [1] (setting [4]) was found to be 19%. The inhibition at 0.1 µM is 83% in assay [2] and 3% in assay [3].

As for `Cc1ccc(CCn2c3c(c4c(Cl)ccc(F)c42)CN(C)CC3)cn1` [II-248, 9-chloro-6-fluoro-2,3,4,5-tetrahydro-2-methyl-5-(2-(6-methylpyridin-3-yl)ethyl)-1H-pyrido[4,3-b]indole], the inhibition at 0.03 µM in assay [1] (setting [4]) was determined as 5%. Also, the inhibition at 0.1 µM in assay [2] came to 88%; in assay [3], 4%.

Regarding `Cc1ccc(CCn2c3c(c4c(Cl)ccc(Cl)c42)CCN(C)C3)cn1` [II-249, 5,8-dichloro-2,3,4,9-tetrahydro-2-methyl-9-(2-(6-methylpyridin-3-yl)ethyl)-1H-pyrido[3,4-b]indole], the inhibition at 0.03 µM in assay [1] (setting [4]) was found to be 4%. The inhibition at 0.1 µM in assay [2] was 74%; in assay [3], 6%.

Consider `Cc1ccc(CCn2c3c(c4c(F)ccc(F)c42)CN(C)CC3)cn1` [II-250], for which the inhibition at 0.03 µM in assay [1] (setting [4]) was found to be 6%. For the same compound, the figures for the inhibition at 0.1 µM in assay [2] and in assay [3] were 57% and -5%, respectively.

In the case of `Cc1ccc(CCn2c3c(c4c(Br)ccc(Br)c42)CN(C)CC3)cn1` [II-251], in assay [1] (setting [4]), the inhibition at 0.03 µM is -4%. Also, the inhibition at 0.1 µM was 81% in assay [2] and -7% in assay [3].

Take `Cc1ccc(CCn2c3c(c4c(Cl)ccc(Br)c42)CN(C)CC3)cn1` [II-252]: in assay [1] (setting [4]), the inhibition at 0.03 µM was 1%. Besides, the inhibition at 0.1 µM in assay [2] was 91%; in assay [3] it was -1%.

On to `Cc1ccc(CCn2c3c(c4c(F)ccc(Cl)c42)CN(C)CC3)cn1` [II-253], for which, in assay [1] (setting [4]), the inhibition at 0.03 µM worked out at 16%. Moreover, the values for the inhibition at 0.1 µM in assay [2] and in assay [3] were 54% and 9%, respectively.

Turning to `Cc1ccc2c(c1)c1c(n2CC(N=[N+]=[N-])c2cnccn2)CCN2CCCC12` (centres unmarked) [II-261, 6-(2-azido-2-pyrazin-2-yl-ethyl)-9-methyl-2,3,4,5,6,10c-hexahydro-1H-3a,6-diaza-cyclopenta[c]fluorene], the inhibition at 0.03 µM in assay [1] (setting [4]) was 103%. In addition, the inhibition at 0.1 µM amounted to 70% in assay [2] and 71% in assay [3].

On to `Cc1ccc2c(c1)c1c(n2CC(C(=O)O)c2ccncc2)CCN(C)C1` (centres unmarked) [II-262, 3-(2,8-dimethyl-3,4-dihydro-1H-pyrido[4,3-b]indol-5(2H)-yl)-2-(pyridin-4-yl)propanoic acid], for which, in assay [1] (setting [4]), the inhibition at 0.03 µM turned out to be 11%. In addition, the inhibition at 0.1 µM in assay [2] was found to be 10%; in assay [3] it was 3%.

Turning to `Cc1ccc2c(c1)c1c(n2CC(C(N)=O)c2ccncc2)CCN(C)C1` (centres unmarked) [II-263], the inhibition at 0.03 µM in assay [1] (setting [4]) worked out at 10%. In addition, the inhibition at 0.1 µM in assay [2] stood at 10%; in assay [3], 2%.

Take `Cc1cnc2c(c1)c1c(n2CC(N=[N+]=[N-])c2ccncc2)CCN(C)C1` (centres unmarked) [V-2, 9-(2-azido-2-(pyridin-4-yl)ethyl)-3,6-dimethyl-6,7,8,9-tetrahydro-5H-pyrrolo[2,3-b:4,5-c′]dipyridine]: the inhibition at 0.03 µM in assay [1] (setting [4]) was found to be 61%. Moreover, the inhibition at 0.1 µM in assay [2] was determined as 2%; in assay [3], 49%.

As to `Cc1ccc2c(c1)c1c(n2CC(C)(N=[N+]=[N-])c2cccnc2)CCN(C)C1` (centres unmarked) [V-3, 5-(2-azido-2-(pyridin-3-yl)propyl)-2,8-dimethyl-2,3,4,5-tetrahydro-1H-pyrido[4,3-b]indole], the inhibition at 0.03 µM in assay [1] (setting [4]) turned out to be 71%. Further, the inhibition at 0.1 µM in assay [2] amounted to 40%; in assay [3], 22%.

For `Cc1ccc2c(c1)c1c(n2CC(OCC(=O)O)c2ccncc2)CCN2CCCC12` (centres unmarked) [V-15, 2-(2-(10-methyl-2,3,5,6-tetrahydro-1H-indolizino[7,8-b]indol-7(11cH)-yl)-1-(pyridin-4-yl)ethoxy)acetic acid], in assay [1] (setting [4]), the inhibition at 0.03 µM is 20%. In addition, the inhibition at 0.1 µM came out at 7% in assay [2] and 4% in assay [3].
